The source of these data is ChEMBL document CHEMBL1125965, “Synthesis and pharmacological evaluation of novel Amino-prostanoids: potent and orally effective thromboxane A2 receptor antagonists” (Bioorg Med Chem Lett, 1991).

Test [1] has as its target T1, Thromboxane A2 receptor (Homo sapiens, UniProt P21731).
T1 sequence (P21731 whole entry): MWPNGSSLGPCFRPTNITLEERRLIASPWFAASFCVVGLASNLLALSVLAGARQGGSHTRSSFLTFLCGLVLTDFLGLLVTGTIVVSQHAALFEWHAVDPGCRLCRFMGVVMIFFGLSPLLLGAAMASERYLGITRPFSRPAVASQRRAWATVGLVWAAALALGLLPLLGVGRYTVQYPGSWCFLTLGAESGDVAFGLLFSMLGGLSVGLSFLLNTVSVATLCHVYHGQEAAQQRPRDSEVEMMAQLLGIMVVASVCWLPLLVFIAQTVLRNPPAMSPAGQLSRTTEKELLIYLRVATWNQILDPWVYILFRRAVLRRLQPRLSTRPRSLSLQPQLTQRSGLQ
Description: In vitro thromboxane A2 receptor antagonism through inhibition of U-46619-induced platelet aggregation in human whole blood. As to conditions: read-out: pA2 (converted). It counts as functional, tissue-based.

The target in test [2] is T2, Thromboxane A2 receptor (Rattus norvegicus, UniProt P34978).
T2 sequence (P34978 whole entry): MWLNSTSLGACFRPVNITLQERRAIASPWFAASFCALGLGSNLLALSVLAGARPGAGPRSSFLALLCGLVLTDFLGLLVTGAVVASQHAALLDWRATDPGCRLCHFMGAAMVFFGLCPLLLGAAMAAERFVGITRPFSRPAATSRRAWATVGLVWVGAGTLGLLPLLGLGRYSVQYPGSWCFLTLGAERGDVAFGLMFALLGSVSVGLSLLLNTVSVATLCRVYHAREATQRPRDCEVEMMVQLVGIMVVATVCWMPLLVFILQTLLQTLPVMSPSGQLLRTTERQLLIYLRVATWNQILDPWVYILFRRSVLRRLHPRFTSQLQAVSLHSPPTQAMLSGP
Description: In vitro thromboxane A2 receptor antagonism through inhibition of U-46619-induced contraction of rat isolated thoracic aortic strip. It counts as functional. Conditions: read-out: pA2 (converted).

The target of test [3] is T3, Thromboxane A2 receptor (Rattus norvegicus) (UniProt P34978).
T3 sequence (whole entry): T2 sequence (P34978 whole entry)
Description: In vitro thromboxane receptor antagonism through inhibition of U-46619-induced contraction of rat isolated thoracic aortic strip. It counts as functional.

Where “and” joins values, the source holds several entries; their conditions need not be identical. Identical values can stand only once.

With `O=C(O)CC/C=C\CO[C@H]1C(OCc2ccc(-c3ccccc3CO)cc2)CC[C@@H]1N1CCCCCC1` (stereo not given in full), the figures for the Kb in test [1] and in test [2] were 3.16 nM and 6.31 nM, respectively. Turning to `O=C(O)CC/C=C\CO[C@H]1[C@@H](OCc2ccc(-c3ccccc3)cc2)CC[C@@H]1N1CCCCCC1`, the results for the Kb in test [1] and in test [2] were 5.01 nM and 39.8 nM, respectively. Take `CS(=O)(=O)Nc1ccccc1-c1ccc(COC2CC[C@H](N3CCCCCC3)[C@H]2OC/C=C\CCC(=O)O)cc1` (stereo not given in full): the Kb in test [1] was 10 nM; in test [2] it was 3.98 nM. Take `O=C(O)CC/C=C\CO[C@H]1[C@@H](OCc2ccc(-c3ccccc3)cc2)CC[C@@H]1N1CCCCC1`: the Kb in test [1] is 10 nM and 7.94 nM; in test [2] it was 31.6 nM and 50.1 nM. For `CNS(=O)(=O)Cc1ccc(-c2ccc(COC3CC[C@H](N4CCCCCC4)[C@H]3OC/C=C\CCC(=O)O)cc2)cc1` (stereo not given in full), the Kb was 3.16 nM in test [1] and 15.8 nM in test [2].

Turning to `CC(=O)NCc1ccccc1-c1ccc(COC2CC[C@H](N3CCCCCC3)[C@H]2OC/C=C\CCC(=O)O)cc1` (stereo not given in full), the figures for the Kb in test [1] and in test [2] were 25.1 nM and 126 nM, respectively.

`O=C(O)CC/C=C\CO[C@H]1[C@@H](OCc2ccc(-c3ccc(CO)cc3)cc2)CC[C@@H]1N1CCCCCC1`: the figures for the Kb in test [1] and in test [2] were 3.98 nM and 50.1 nM, respectively.

For the compound `CS(=O)(=O)Nc1ccccc1-c1ccc(CO[C@H]2CC[C@H](N3CCCCCC3)[C@H]2OC/C=C\CCC(=O)O)cc1`, the Kb in test [1] was 6.31 nM; in test [2], 63.1 nM.

With `CC(=O)NCc1ccc(-c2ccc(COC3CC[C@H](N4CCCCCC4)[C@H]3OC/C=C\CCC(=O)O)cc2)cc1` (stereo not given in full), the Kb in test [1] is 2.51 nM; in test [2] it was 20 nM. Consider `CS(=O)(=O)Nc1cccc(-c2ccc(COC3CC[C@H](N4CCCCCC4)[C@H]3OC/C=C\CCC(=O)O)cc2)c1` (stereo not given in full), for which the Kb in test [1] was 12.6 nM; in test [2] it was 50.1 nM. Taken in the same sequence, the figures for `O=C(O)CC/C=C\CO[C@H]1C(OCc2ccc(-c3cccc(CO)c3)cc2)CC[C@@H]1N1CCCCCC1` (stereo not given in full) were 7.94 nM and 12.6 nM. For the compound `O=C(O)CC/C=C\CO[C@H]1C(OCc2ccc(-c3ccc(CO)cc3)cc2)CC[C@@H]1N1CCCCCC1` (stereo not given in full), the Kb in test [1] is 3.16 nM; in test [2] it was 20 nM. For `O=C(O)CC/C=C\CO[C@H]1C(OCc2ccc(-c3ccccc3)cc2)CC[C@@H]1N1CCCCCC1` (stereo not given in full), the Kb in test [1] was 12.6 nM; in test [2] it was 25.1 nM. With `O=C(O)CC/C=C\CO[C@@H]1C(OCc2ccc(-c3ccccc3)cc2)CC[C@@H]1N1CCCCC1` (stereo not given in full), the results for the Kb in test [1] and in test [2] were 39.8 nM and 15.8 nM, respectively.

In the case of `O=C(O)CC/C=C\CO[C@H]1C(OCc2ccc(-c3ccc(O)cc3)cc2)CC[C@@H]1N1CCCCCC1` (stereo not given in full), the Kb in test [1] and in test [2] was 6.31 nM throughout. Consider `NC(=O)c1ccc(-c2ccc(COC3CC[C@H](N4CCCCCC4)[C@H]3OC/C=C\CCC(=O)O)cc2)cc1` (stereo not given in full), for which the Kb in test [1] is 3.16 nM; in test [2], 20 nM. The matching figures for `NC(=O)Nc1ccccc1-c1ccc(COC2CC[C@H](N3CCCCCC3)[C@H]2OC/C=C\CCC(=O)O)cc1` (stereo not given in full): 7.94 nM and 63.1 nM. Consider `O=C(O)CC/C=C\CO[C@H]1C(OCc2ccc(-c3ccccc3CCO)cc2)CC[C@@H]1N1CCCCCC1` (stereo not given in full), for which the Kb in test [1] is 2 nM; in test [2], 31.6 nM. Consider `NC(=O)c1ccccc1-c1ccc(COC2CC[C@H](N3CCCCCC3)[C@H]2OC/C=C\CCC(=O)O)cc1` (stereo not given in full), for which the Kb in test [1] and in test [2] was 15.8 nM throughout.

On to `NC(=O)Cc1ccc(-c2ccc(COC3CC[C@H](N4CCCCCC4)[C@H]3OC/C=C\CCC(=O)O)cc2)cc1` (stereo not given in full), for which the Kb was 3.98 nM in test [1] and 20 nM in test [2].

As to `O=C(O)CC/C=C\CO[C@H]1[C@@H](OCc2ccc(-c3ccccc3CO)cc2)CC[C@@H]1N1CCCCCC1`, the Kb in test [1] is 1.58 nM; in test [2], 12.6 nM. One may read the pKb as the Kb on a negative log10 scale, so that one unit is a factor of ten. The low end stands for a high Kb, the high end for a low Kb. With `O=C(O)CC/C=C\CO[C@H]1[C@H](OCc2ccc(-c3ccccc3CO)cc2)CC[C@@H]1N1CCCCCC1`, in test [3], the pKb is 8.5. The Kb in test [1] is 6.31 nM. With `CNS(=O)(=O)Cc1ccccc1-c1ccc(COC2CC[C@H](N3CCCCCC3)[C@H]2OC/C=C\CCC(=O)O)cc1` (stereo not given in full), the Kb was 7.94 nM in test [1] and 12.6 nM in test [2]. Consider `O=C(O)CC/C=C\CO[C@H]1C(OCc2ccc(-c3ccccc3)cc2)CC[C@@H]1N1CCCCC1` (stereo not given in full), for which the Kb in test [1] is 63.1 nM and 15.8 nM.

As for `O=C(O)CC/C=C\CO[C@@H]1[C@@H](OCc2ccc(-c3ccccc3)cc2)CC[C@@H]1N1CCCCC1`, the figures for the Kb in test [1] and in test [2] were 100 nM and 1000 nM, respectively. The matching figures for `NC(=O)Cc1ccccc1-c1ccc(COC2CC[C@H](N3CCCCCC3)[C@H]2OC/C=C\CCC(=O)O)cc1` (stereo not given in full): 7.94 nM and 158 nM. Turning to `O=C(O)CC/C=C\CO[C@H]1C(OCc2ccc(-c3ccccc3O)cc2)CC[C@@H]1N1CCCCCC1` (stereo not given in full), the figures for the Kb in test [1] and in test [2] were 15.8 nM and 20 nM, respectively.

As to `O=C(O)CC/C=C\CO[C@H]1[C@@H](OCc2ccc(-c3cccc(CO)c3)cc2)CC[C@@H]1N1CCCCCC1`, the figures for the Kb in test [1] and in test [2] were 5.01 nM and 79.4 nM, respectively.
